Measurements published in PMC12215270 (Nature Communications, 2025).

Experiments:
[1] = target: T1, TgCmt (guanine-N7 methyltransferase) (Toxoplasma gondii, UniProt S8F527); test: in vitro RNA cap methylation, anti-m7G immuno-dot blot; format: biochemical
T1 sequence (S8F527 716-1283): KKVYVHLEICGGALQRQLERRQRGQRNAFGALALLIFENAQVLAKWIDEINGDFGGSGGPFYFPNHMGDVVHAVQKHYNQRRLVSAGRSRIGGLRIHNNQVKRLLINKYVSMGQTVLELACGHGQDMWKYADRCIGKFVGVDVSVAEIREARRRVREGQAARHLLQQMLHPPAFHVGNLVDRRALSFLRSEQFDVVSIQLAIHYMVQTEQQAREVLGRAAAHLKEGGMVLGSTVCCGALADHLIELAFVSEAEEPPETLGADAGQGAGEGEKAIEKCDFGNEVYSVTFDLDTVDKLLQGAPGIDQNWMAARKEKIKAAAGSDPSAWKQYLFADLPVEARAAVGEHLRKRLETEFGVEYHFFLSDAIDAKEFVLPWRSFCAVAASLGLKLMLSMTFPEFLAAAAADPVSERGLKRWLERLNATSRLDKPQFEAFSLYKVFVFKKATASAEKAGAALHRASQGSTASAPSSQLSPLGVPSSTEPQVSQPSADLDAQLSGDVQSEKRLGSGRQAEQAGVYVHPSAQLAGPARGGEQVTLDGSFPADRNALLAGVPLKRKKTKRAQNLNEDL

[2] = target: T2, TgCet (RNA triphosphatase) (Toxoplasma gondii, UniProt S8F0G9); test: ATPase assay; format: biochemical
T2 sequence (S8F0G9 1-920): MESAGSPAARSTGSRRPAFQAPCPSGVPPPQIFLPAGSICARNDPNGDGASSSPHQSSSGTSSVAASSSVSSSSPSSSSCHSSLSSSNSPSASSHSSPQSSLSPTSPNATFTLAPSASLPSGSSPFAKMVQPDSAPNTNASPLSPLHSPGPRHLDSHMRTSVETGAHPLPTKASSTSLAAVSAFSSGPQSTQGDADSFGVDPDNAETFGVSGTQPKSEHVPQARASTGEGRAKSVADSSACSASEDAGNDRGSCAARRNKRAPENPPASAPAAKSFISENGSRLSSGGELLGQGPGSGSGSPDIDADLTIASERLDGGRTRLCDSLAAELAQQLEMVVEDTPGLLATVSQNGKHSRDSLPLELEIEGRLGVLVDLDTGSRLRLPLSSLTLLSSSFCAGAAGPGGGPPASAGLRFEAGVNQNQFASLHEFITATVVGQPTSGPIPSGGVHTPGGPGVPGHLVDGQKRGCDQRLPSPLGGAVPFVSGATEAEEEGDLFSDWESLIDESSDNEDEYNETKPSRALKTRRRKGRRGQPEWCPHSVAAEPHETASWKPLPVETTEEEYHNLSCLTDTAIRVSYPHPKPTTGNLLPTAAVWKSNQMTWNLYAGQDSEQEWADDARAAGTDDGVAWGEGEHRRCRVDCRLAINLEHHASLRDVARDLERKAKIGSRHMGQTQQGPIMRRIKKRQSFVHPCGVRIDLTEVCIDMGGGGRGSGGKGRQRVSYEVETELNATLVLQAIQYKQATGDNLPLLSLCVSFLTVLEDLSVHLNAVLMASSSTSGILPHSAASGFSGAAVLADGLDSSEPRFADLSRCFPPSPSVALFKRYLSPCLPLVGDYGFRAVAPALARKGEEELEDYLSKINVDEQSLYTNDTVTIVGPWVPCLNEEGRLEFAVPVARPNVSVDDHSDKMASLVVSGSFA

Structure (SMILES) | in vitro RNA cap methylation, anti-m7G immuno-dot blot [1] | IC50 [2] [nM]
Nc1ncnc2c1ncn2[C@@H]1O[C@H](C[C@@H](N)CC[C@H](N)C(=O)O)[C@@H](O)[C@H]1O [sinefungin] | sinefungin inhibits m^7GpppN32 synthesis in a concentration-dependent manner | 
O=c1c(O)c(-c2cc(O)c(O)c(O)c2)oc2cc(O)cc(O)c12 [Myricetin] |  | 400
